# Measured values from patent US8629241B2, “Alpha helical mimics, their uses and methods for their production” (The University of Queensland, priority 2004, dated 2014).
# Where a SMILES comes first, the peptide text is derived from it. Bridges are numbered along the chain shown (N, C = ends). [ ]: non-standard residue; d: D form. hArg = N=C(N)NCCCC[C@H](N)C(=O)O; Flu = fluorescein; βAla = NCCC(=O)O; Mpa = O=C(O)CCS
# Legend:
# thrombin = thrombin (Homo sapiens, UniProt P00734); settings: cited from earlier work
# trypsin [1] = settings: cited from earlier work
# [2] = type: physicochemical; settings: for θ222/θ208 / [θ]192 / [θ]208 / [θ]222: Table 8; for [θ]192 / [θ]208 / [θ]222: one or more cyclic pentapeptide modules versus linear peptides; for % helicity: fH × 100, [θ∞H]222 = −44000, k = 2.6
# Method: Circular Dichroism (CD) was performed on peptides having SEQ ID NOs: 8 to 14 and 18 to 31, using methods described above. The molar elipticities at 222 nm, 208 nm and 190 nm, ratios of elipticities at 222 nm/208 nm and relative helicity are shown in Tables 6 and 7.
# Assuming that mean alpha helix content (fH) is linearly related to elipticity at 222 nm, or in our case 215 nm ([θ]obs215), then the equation for calculating helix content is: fH=([θ]obs215−[θ]C)/([θ]∞215−[θ]C) (1) Luo and Baldwin^22 determined that the random coil ([θ]C) and infinite alpha helix ([θ]∞222) molar elipticities are temperature dependent based on the equations: [θ]C=2220−53T (2a) [θ]∞215=(−44000+250T)(1−k/Np) (2b) where T is temperature in degrees Celsius, Np is the number of peptide units, and k is a finite length correction.
# CD was performed on peptides having one [SEQ ID NO: 8] or more than one modular macrocycle [SEQ ID NOs: 46 and 47], as compared with corresponding linear peptides, Ac[KARAD]n—NH2 where n=1 [SEQ ID NO: 14], n=2 [SEQ ID NO: 54] and n=3 [SEQ ID NO: 55]. The molar elipticities at 222 nm, 208 nm and 190 nm, ratios of elipticities at 222 nm/208 nm and percentage helicity are shown in Table 8.
# (§1) CD experiments were performed on a Jasco Model J-710 spectropolarimeter which was routinely calibrated with (1S)-(+)-10-camphorsulfonic acid. Temperature control was achieved using a Neslab RTE-111 circulating water bath. Spectra were recorded in a 0.1 cm Jasco cell between 310-185 nm at 50 nm/min with a band width of 1.0 nm, response time of 2 sec, resolution step width of 0.1 nm and sensitivity of 20, 50 or 100 mdeg. Each spectrum represents the average of 5 scans with smoothing to reduce noise. Peptide samples for CD spectroscopy were dissolved in distilled water (˜1 mg/mL). Each stock solution was diluted to a final concentration of 50 μM in 10 mM sodium phosphate buffer (pH7.4), with or without additives (2,2,2-trifluoroethanol (TFE) or guanidine.HCl). Guanidine.HCl denaturation experiments were performed according to Creighton^105.
# 1D ^1H NMR spectra were then recorded with presaturation and a relaxation delay (d1) of 30 seconds to allow for full relaxation of peptide and DSS^1H signals to facilitate accurate integration of proton signals with S/N>250:1. This method provides reproducible concentrations within ±2%.
# CD data in ellipticity was converted to mean peptide ellipticity using the equation: [θ]=θ/(10×C×Np×1) where θ is the ellipticity in millidegrees, C is the peptide molar concentration (M), 1 is the cell path length (cm), and Np is the number of peptide units (ie. pentapeptides […], 10 & 11 Np=5, 12 Np=4.)
# Relative helicities were employed to allow scaling of compounds by dividing the [θ]obs215(8)/[θ]obs215(x) for pentapeptides, and [θ]obs215(24)/[θ]obs215(x) for hexapeptides.
# [3] = Stability against denaturants (guanidine.HCl, temperature) followed by CD; type: physicochemical; settings: 8M guanidinium chloride, 25° C
# Method: Proteolytic stability of the helix. trypsin digestion
# The helical macrocycles were conformationally very stable even under protein-denaturing conditions, as illustrated by the low dependence of their CD spectra on temperature between 5-65° C. (FIG. 9a) and on the concentration of guanidine.HCl (FIG. 9b).
# as §1
# trypsin [4] = assay: Proteolytic stability of the helix, trypsin digestion (Example 10); type: in vitro ADME; settings: pH 8.2, room temperature, 1 to 155 minutes
# Method: A standard solution of Ac—KARAD-NH2 and Ac—(cyclo-1,5)-KARAD-NH2 (1 mg/mL) was prepared in 100 mM ammonium carbonate buffer at pH˜8.2. To 100 μL of each solution was added 1 mg/mL of trypsin (1 μL). The digest was conducted at room temperature with 5 μL aliquots taken at 1, 4, 8, 28, 48, 55, 110, 155 minutes. Aliquots were diluted with 5 μL of 3% TFA to stop the reaction. and analyzed by LC-MS using 2.1×150 mm Phenomenex 300 Å C18 5 μm column, with a 3% per minute linear gradient of 0-60% acetonitrile over 20 minutes. The amount of starting material left in each sample was quantified by determination of total ion counts for the molecular ion.
# Compound of SEQ ID NO 8 and its acyclic version SEQ ID NO: 14 were incubated with trypsin (pH 8.2), aliquots removed at intervals between 1 and 155 minutes, and analyzed by LCMS. […] Similarly the cyclic compound 8 was not degraded by human serum (1 h, 37° C.). […] This is consistent with other observations that only an extended or linear peptide conformation is recognized, not only by trypsin, but by all proteolytic enzymes^125 Presumably the cycle is too tightly locked into an alpha helical turn to permit significant unwinding to the extended format needed for recognition by trypsin.
# Serum stability = type: in vitro ADME; settings: 1 h, 37° C
# Method: Standard solutions of Ac—KARAD-NH2 and Ac—(cyclo-1,5)-KARAD-NH2 (1 mg/mL) were prepared in water. 200 μL of each peptide was added to human serum 800 μL and incubated at 37° C. Acetonitrile/water 3:1 (300 μL) was added to aliquots (100 μL) of serum at 5, 15, 30, 45 and 60 minutes to precipitate serum proteins, which were removed by centrifugation. The decanted supernatant was analyzed by LC-MS MS with a 2.1×150 mm Phenomenex 300 Å C18 5 um column, using a 3% per minute linear gradient from 0%-60% acetonitrile over 20 minutes. The amount of starting material left in each sample was quantified by determination of total ion counts for the molecular ion.
# trypsin [5] = assay: in vitro; type: in vitro ADME; settings: isolated enzyme trypsin, pH 8
# Method: Solutions of SEQ ID NO: 46 (25 μM) and linear peptide SEQ ID NO: 54 (26 μM) were incubated with trypsin (1 μg/mL) in 25 mM ammonium carbonate buffer (pH=8) at room temperature. Aliquots were taken at 30 seconds, 1 minute, 5 minutes, 15 minutes, 30 minutes, 1 hour and 2 hours, and diluted with an equivalent volume of 3% trifluoroacetic acid. The resultant solutions were analyzed using a 2×75 mm, 3 μm, Aqua C-18 column (Phenomenex) equilibrated in aqueous formic acid (0.1%). Peptide cleavage products were eluted using a linear gradient of acetonitrile from 0 to 80% in aqueous 0.01% formic acid over 20 minutes at a rate of 300 μL/min. Rate of degradation of either SEQ ID NO: 32 or SEQ ID NO: 43 was quantified by determining extracted ion counts of chromatograms relative to control solutions (containing no enzyme) using a QSTAR PULSAR Electrospray QqTOF Mass Spectrometer and analyzed using BioMultiview (SCIEX Software). Retention time of SEQ ID NO: 46=11.64 minutes. Retention time of linear peptide SEQ ID NO: 54=7.43 minutes. SEQ ID NO: 46 was also found to be highly resistant to proteolytic cleavage by trypsin (97% recovered intact after 2 h), whereas the linear peptide […] (SEQ ID NO: 54) was completely degraded within 30 seconds.
# [6] = phase III; patients at risk of abrupt vessel closure after coronary angioplasty; cited from earlier work
# MDM2 [7] = molecular target: T1, MDM2 (Homo sapiens, UniProt Q00987); settings: cited from earlier work
# T1 sequence (Q00987 whole entry): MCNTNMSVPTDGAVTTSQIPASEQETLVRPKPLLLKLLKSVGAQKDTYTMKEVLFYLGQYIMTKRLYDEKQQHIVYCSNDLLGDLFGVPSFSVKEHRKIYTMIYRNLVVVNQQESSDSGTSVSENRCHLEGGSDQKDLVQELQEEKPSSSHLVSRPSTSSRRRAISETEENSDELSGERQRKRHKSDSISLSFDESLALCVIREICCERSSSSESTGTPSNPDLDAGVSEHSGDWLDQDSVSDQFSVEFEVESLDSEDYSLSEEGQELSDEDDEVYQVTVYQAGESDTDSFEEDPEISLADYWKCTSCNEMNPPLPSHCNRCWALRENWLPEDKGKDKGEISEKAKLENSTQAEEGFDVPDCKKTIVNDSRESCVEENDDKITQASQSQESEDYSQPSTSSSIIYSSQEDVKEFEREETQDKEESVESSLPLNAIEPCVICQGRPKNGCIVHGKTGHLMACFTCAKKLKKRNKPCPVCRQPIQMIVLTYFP
# MDM2 [8] = molecular target: T1, MDM2; settings: read-out: dissociation constant; cited from earlier work
# Bcl-xL = Bcl-xL (Homo sapiens, UniProt Q07817); settings: read-out: dissociation constant; cited from earlier work
# Sequence of Bcl-xL (Q07817 whole entry, species assumed): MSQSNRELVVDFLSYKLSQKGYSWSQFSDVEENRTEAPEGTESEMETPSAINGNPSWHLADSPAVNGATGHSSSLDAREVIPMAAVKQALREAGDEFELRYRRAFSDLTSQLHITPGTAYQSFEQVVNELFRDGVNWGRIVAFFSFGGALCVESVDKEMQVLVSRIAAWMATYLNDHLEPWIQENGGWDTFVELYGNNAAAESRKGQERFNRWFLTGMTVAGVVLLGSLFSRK
# Bcl-2 = Bcl-2 (Homo sapiens, UniProt P10415); settings: read-out: dissociation constant; cited from earlier work
# Sequence of Bcl-2 (P10415 whole entry, species assumed): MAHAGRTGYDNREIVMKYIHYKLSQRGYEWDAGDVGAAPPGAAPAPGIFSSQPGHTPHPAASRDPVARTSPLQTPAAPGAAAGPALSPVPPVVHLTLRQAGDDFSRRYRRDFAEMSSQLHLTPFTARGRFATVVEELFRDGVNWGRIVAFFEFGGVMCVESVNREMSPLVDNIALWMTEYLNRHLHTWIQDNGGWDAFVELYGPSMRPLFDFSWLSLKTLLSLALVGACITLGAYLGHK
compound,measurement,setting,value
N=C(N)NCCC[C@@H]1NC(=O)[C@@H]2CCCN2C(=O)[C@@H](NC=O)CNC(=O)/C=C/C(Cc2ccc(O)cc2)NC(=O)[C@@H](Cc2ccccc2)NC(=O)C1=O (some centres unmarked) [Cyclotheonamide A],Ki,thrombin,180 nM
same,Ki,trypsin [1],23 nM
"CC(=O)N[C@H]1CCCCNC(=O)C[C@@H](C(N)=O)NC(=O)[C@H](C)NC(=O)[C@H](CCCNC(=N)N)NC(=O)[C@H](C)NC1=O [SEQ ID NO: 8, Ac-(cyclo-1,5)-[KARAD]-NH2] (Ac-KARAD-NH2; lactam 1-5)",molar elipticity at 215 nm in helix stabilizing solvent,[2],does not increase
same,θ222/θ208,[2],0.98
same,[θ]192,[2],52191 degcm^2dmol^−1residue^−1
same,[θ]208,[2],−17039 degcm^2dmol^−1residue^−1
same,[θ]222,[2],−15464 degcm^2dmol^−1residue^−1
same,Relative helicity,"[2]; [θ]215 relative to SEQ ID NO: 8, 10 mM phosphate buffer, pH 7.4, 25° C",1.00
same,percentage helicities,"[2]; equation 2b with k˜4, assuming 8 has 100% helicity",100%
same,% helicity,[2],79%
same,helicity on variation of the k factor,[2]; k factor from 2.4 to 4.5,56-135%
same,[θ]190,"[2]; molar elipticity at 190 nm, 10 mM phosphate buffer, pH 7.4, 25° C",38300 deg.cm^2.dmol^−1.residue^−1
same,[θ]207,"[2]; molar elipticity at 207 nm, 10 mM phosphate buffer, pH 7.4, 25° C",−12211 deg.cm^2.dmol^−1.residue^−1
same,[θ]215,"[2]; molar elipticity at 215 nm, 10 mM phosphate buffer, pH 7.4, 25° C",−12757 deg.cm^2.dmol^−1.residue^−1
same,θ215/θ207,"[2]; ratio of elipticities, 10 mM phosphate buffer, pH 7.4, 25° C",1.04
same,alpha helicity (molar elipticity at 215 nm) in denaturant,[3],maintains full alpha helicity
same,"stability to trypsin (starting material left, LCMS)",trypsin [4],remained intact
same,degradation by human serum,Serum stability,not degraded
"CC(=O)N[C@H]1CCCCNC(=O)C[C@@H](C(=O)N[C@H]2CCCCNC(=O)C[C@@H](C(N)=O)NC(=O)[C@H](C)NC(=O)[C@H](CCCNC(=N)N)NC(=O)[C@H](C)NC2=O)NC(=O)[C@H](C)NC(=O)[C@H](CCCNC(=N)N)NC(=O)[C@H](C)NC1=O [SEQ ID NO: 46] (Ac-KARADKARAD-NH2; lactam 1-5, 6-10)",θ222/θ208,[2],1.29
same,[θ]192,[2],104187 degcm^2dmol^−1residue^−1
same,[θ]208,[2],−24957 degcm^2dmol^−1residue^−1
same,[θ]222,[2],−32340 degcm^2dmol^−1residue^−1
same,% helicity,[2],99%
same,"remaining at 2 h, 25 μM",trypsin [5],97%
N=C(N)NCCCC[C@@H]1NC(=O)CCSSC[C@@H](C(N)=O)NC(=O)[C@@H]2CCCN2C(=O)[C@H](Cc2c[nH]c3ccccc23)NC(=O)[C@H](CC(=O)O)NC(=O)CNC1=O [eptifibatide] ([Mpa][hArg]GDWPC-NH2; disulfide 1-7),incidence of cardiac events,[6],reduce the incidence of cardiac events
Acetyl-Phe-Met-Aib-Pmp-6C1W-Glu-Ac3c-Leu-NH2,IC50,MDM2 [7],5 nM
Ac—FR(Dpr-Flu)(Ac6c)(6-Br—W)EEL-NH2,Kd,MDM2 [8],2 nM
Flu-βANLWAAQRYGRELRRMSDKKFVDSFKK-NH2 ({Flu-βAla}-ANLWAAQRYGRELRRMSDKKFVDSFKK-NH2),Kd,Bcl-xL,0.6 nM
same,Kd,Bcl-2,3 nM
